Measured values published in ChEMBL document CHEMBL4699579, “A Peptidyl Inhibitor that Blocks Calcineurin-NFAT Interaction and Prevents Acute Lung Injury” (J Med Chem, 2020).
Starred links: 1 amine or outer side, 2 acyl side, 3 side chain; linkers in the order of their positions; H or OH if unused. Non-standard residues stand in square brackets, D forms with d. Residues, ends and D or L forms follow the SMILES beside them. *: point of attachment. X5 = O=C(O)c1cc(NC(=S)*)ccc1-c1c2ccc(=O)cc-2oc2cc(O)ccc12; Benzoyl(2,3,4,5,6-F5) = O=C(c1c(F)c(F)c(F)c(F)c1F)*; Benzoyl(2,3-Cl2) = O=C(c1cccc(Cl)c1Cl)*; X3 = CC1(C)SC[C@@H](C(=O)[*:2])N1[*:1]; Cyclohexanecarbonyl = O=C(C1CCCCC1)*; Cyclopentanecarbonyl = O=C(C1CCCC1)*; X7 = O=C(c1cc(F)c(F)c(F)c1F)*; Tle = CC(C)(C)[C@H](N)C(=O)O; X4 = O=C(c1ccc(Br)c(Cl)c1)*; X6 = Cc1ccc(C(=O)*)c(F)c1F; AEEA = NCCOCCOCC(=O)O; Bz = O=C(c1ccccc1)*; βAla = NCCC(=O)O; For = O=C*

Assay: Half life in 25% human serum at 5 uM at 37 degC by HPLC analysis
Format: ADME, cell-free

| half-life at 5 µM [h] | Structure (SMILES) |
| --- | --- |
| 1 | CC[C@H](C)[C@H](NC(=O)[C@@H](NC(=O)[C@@H]1CCCN1C(=O)[C@H](Cc1cnc[nH]1)NC(=O)[C@@H]1CCCN1C(=O)CN)C(C)C)C(=O)N[C@H](C(=O)N[C@H](C(=O)N[C@H](C(=O)NCC(=O)N1CCC[C@H]1C(=O)N[C@@H](Cc1cnc[nH]1)C(=O)N[C@@H](CCC(=O)O)C(=O)N[C@@H](CCC(=O)O)C(=O)O)[C@@H](C)O)[C@@H](C)CC)C(C)C |
| 6 | CC[C@H](C)[C@H](NC(=O)[C@@H](NC(=O)[C@@H](NC(=O)[C@@H](NC(=O)[C@@H]1CCCN1C(=O)[C@H](Cc1cnc[nH]1)NC(=O)[C@@H]1CCCN1C(=O)CN)C(C)(C)C)[C@@H](C)CC)C(C)(C)C)C(=O)N[C@H](C(=O)NCC(=O)N1[C@H](C(=O)N[C@@H](Cc2cnc[nH]2)C(=O)N[C@@H](CCC(=O)O)C(=O)N[C@@H](CCC(=O)O)C(=O)O)CSC1(C)C)[C@@H](C)O (H-GPHP[Tle]I[Tle]ITG[X3]HEE-OH) |

Assay: Binding affinity to GST-tagged Calcineurin (unknown origin) incubated for 1 hr by fluorescence polarization assay
Parameters: species or system Homo sapiens

| Structure (SMILES) | Kd [nM] |
| --- | --- |
| CC[C@H](C)[C@H](NC(=O)[C@@H](NC(=O)CNC(=O)[C@H](Cc1c[nH]cn1)NC(=O)[C@@H]1CCCN1C(=O)CNC(C)=O)C(C)(C)C)C(=O)N[C@H](C(=O)N[C@H](C(=O)N[C@H](C(=O)NCC(=O)N1CCC[C@H]1C(=O)N[C@@H](Cc1c[nH]cn1)C(=O)N[C@@H](CCC(=O)O)C(=O)N[C@@H](CCC(=O)O)C(=O)N[C@@H](Cc1ccc(O)cc1)C(=O)N[C@@H](CCCCNC(=S)Nc1ccc(-c2c3ccc(=O)cc-3oc3cc(O)ccc23)c(C(=O)O)c1)C(N)=O)[C@@H](C)O)[C@@H](C)CC)C(C)(C)C (Ac-GPHG[Tle]I[Tle]ITGPHEEYK(X5)-NH2) | 92 |
| CC[C@H](C)[C@H](NC(=O)[C@@H](NC(=O)c1ccc(C)c(F)c1F)C(C)(C)C)C(=O)N[C@H](C(=O)N[C@H](C(=O)N[C@H](C(=O)NCC(=O)N1CCC[C@H]1C(=O)N[C@@H](Cc1c[nH]cn1)C(=O)N[C@@H](CCC(=O)O)C(=O)N[C@@H](CCC(=O)O)C(=O)N[C@@H](Cc1ccc(O)cc1)C(=O)N[C@@H](CCCCNC(=S)Nc1ccc(-c2c3ccc(=O)cc-3oc3cc(O)ccc23)c(C(=O)O)c1)C(N)=O)[C@@H](C)O)[C@@H](C)CC)C(C)(C)C (X6-[Tle]I[Tle]ITGPHEEYK(X5)-NH2) | 74 |
| CC[C@H](C)[C@H](NC(=O)[C@@H](NC(=O)c1cccc(Cl)c1Cl)C(C)(C)C)C(=O)N[C@H](C(=O)N[C@H](C(=O)N[C@H](C(=O)N[C@@H](CC(=O)O)C(=O)N[C@@H](CCC(N)=O)C(=O)N[C@@H](Cc1ccc(O)cc1)C(=O)N[C@@H](CCCNC(=N)N)C(=O)NCCC(=O)N[C@@H](CCCCNC(=S)Nc1ccc(-c2c3ccc(=O)cc-3oc3cc(O)ccc23)c(C(=O)O)c1)C(N)=O)[C@@H](C)O)[C@@H](C)CC)C(C)(C)C ({Benzoyl(2,3-Cl2)}-[Tle]I[Tle]ITDQYR[βAla]K(X5)-NH2) | 64 |
| CC[C@H](C)[C@H](NC(=O)[C@@H](NC(=O)c1ccccc1)C(C)(C)C)C(=O)N[C@H](C(=O)N[C@H](C(=O)N[C@H](C(=O)NCC(=O)N1CCC[C@H]1C(=O)N[C@@H](Cc1c[nH]cn1)C(=O)N[C@@H](CCC(=O)O)C(=O)N[C@@H](CCC(=O)O)C(=O)N[C@@H](Cc1ccc(O)cc1)C(=O)N[C@@H](CCCCNC(=S)Nc1ccc(-c2c3ccc(=O)cc-3oc3cc(O)ccc23)c(C(=O)O)c1)C(N)=O)[C@@H](C)O)[C@@H](C)CC)C(C)(C)C (Bz-[Tle]I[Tle]ITGPHEEYK(X5)-NH2) | 224 |
| CC[C@H](C)[C@H](NC(=O)[C@@H](NC(=O)C1CCCCC1)C(C)(C)C)C(=O)N[C@H](C(=O)N[C@H](C(=O)N[C@H](C(=O)NCC(=O)N1CCC[C@H]1C(=O)N[C@@H](Cc1c[nH]cn1)C(=O)N[C@@H](CCC(=O)O)C(=O)N[C@@H](CCC(=O)O)C(=O)N[C@@H](Cc1ccc(O)cc1)C(=O)N[C@@H](CCCCNC(=S)Nc1ccc(-c2c3ccc(=O)cc-3oc3cc(O)ccc23)c(C(=O)O)c1)C(N)=O)[C@@H](C)O)[C@@H](C)CC)C(C)(C)C (Cyclohexanecarbonyl-[Tle]I[Tle]ITGPHEEYK(X5)-NH2) | 207 |
| CC[C@H](C)[C@H](NC(=O)[C@@H](NC(=O)c1cccc(Cl)c1Cl)C(C)(C)C)C(=O)N[C@H](C(=O)N[C@H](C(=O)N[C@H](C(=O)NCCOCCOCC(=O)N[C@@H](CCCCNC(=S)Nc1ccc(-c2c3ccc(=O)cc-3oc3cc(O)ccc23)c(C(=O)O)c1)C(N)=O)[C@@H](C)O)[C@@H](C)CC)C(C)(C)C ({Benzoyl(2,3-Cl2)}-[Tle]I[Tle]IT[AEEA]K(X5)-NH2) | 700 |
| CC[C@H](C)[C@H](NC(=O)[C@@H](NC(C)=O)C(C)(C)C)C(=O)N[C@H](C(=O)N[C@H](C(=O)N[C@H](C(=O)NCC(=O)N1CCC[C@H]1C(=O)N[C@@H](Cc1c[nH]cn1)C(=O)N[C@@H](CCC(=O)O)C(=O)N[C@@H](CCC(=O)O)C(=O)N[C@@H](Cc1ccc(O)cc1)C(=O)N[C@@H](CCCCNC(=S)Nc1ccc(-c2c3ccc(=O)cc-3oc3cc(O)ccc23)c(C(=O)O)c1)C(N)=O)[C@@H](C)O)[C@@H](C)CC)C(C)(C)C (Ac-[Tle]I[Tle]ITGPHEEYK(X5)-NH2) | > 5400 |
| CC[C@H](C)[C@H](NC(=O)[C@@H](NC(=O)c1cccc(Cl)c1Cl)C(C)(C)C)C(=O)N[C@H](C(=O)N[C@H](C(=O)N[C@H](C(=O)NCC(=O)N1CCC[C@H]1C(=O)N[C@@H](Cc1c[nH]cn1)C(=O)N[C@@H](CCC(=O)O)C(=O)N[C@@H](CCC(=O)O)C(=O)N[C@@H](Cc1ccc(O)cc1)C(=O)N[C@@H](CCCCNC(=S)Nc1ccc(-c2c3ccc(=O)cc-3oc3cc(O)ccc23)c(C(=O)O)c1)C(N)=O)[C@@H](C)O)[C@@H](C)CC)C(C)(C)C ({Benzoyl(2,3-Cl2)}-[Tle]I[Tle]ITGPHEEYK(X5)-NH2) | 41 |
| CC[C@H](C)[C@H](NC(=O)[C@@H](NC(=O)C1CCCC1)C(C)(C)C)C(=O)N[C@H](C(=O)N[C@H](C(=O)N[C@H](C(=O)NCC(=O)N1CCC[C@H]1C(=O)N[C@@H](Cc1c[nH]cn1)C(=O)N[C@@H](CCC(=O)O)C(=O)N[C@@H](CCC(=O)O)C(=O)N[C@@H](Cc1ccc(O)cc1)C(=O)N[C@@H](CCCCNC(=S)Nc1ccc(-c2c3ccc(=O)cc-3oc3cc(O)ccc23)c(C(=O)O)c1)C(N)=O)[C@@H](C)O)[C@@H](C)CC)C(C)(C)C (Cyclopentanecarbonyl-[Tle]I[Tle]ITGPHEEYK(X5)-NH2) | 357 |
| CC[C@H](C)[C@H](NC(=O)[C@@H](NC(=O)c1ccc(Br)c(Cl)c1)C(C)(C)C)C(=O)N[C@H](C(=O)N[C@H](C(=O)N[C@H](C(=O)NCC(=O)N1CCC[C@H]1C(=O)N[C@@H](Cc1c[nH]cn1)C(=O)N[C@@H](CCC(=O)O)C(=O)N[C@@H](CCC(=O)O)C(=O)N[C@@H](Cc1ccc(O)cc1)C(=O)N[C@@H](CCCCNC(=S)Nc1ccc(-c2c3ccc(=O)cc-3oc3cc(O)ccc23)c(C(=O)O)c1)C(N)=O)[C@@H](C)O)[C@@H](C)CC)C(C)(C)C (X4-[Tle]I[Tle]ITGPHEEYK(X5)-NH2) | 189 |
| CC[C@H](C)[C@H](NC(=O)[C@@H](NC(=O)c1c(F)c(F)c(F)c(F)c1F)C(C)(C)C)C(=O)N[C@H](C(=O)N[C@H](C(=O)N[C@H](C(=O)NCC(=O)N1CCC[C@H]1C(=O)N[C@@H](Cc1c[nH]cn1)C(=O)N[C@@H](CCC(=O)O)C(=O)N[C@@H](CCC(=O)O)C(=O)N[C@@H](Cc1ccc(O)cc1)C(=O)N[C@@H](CCCCNC(=S)Nc1ccc(-c2c3ccc(=O)cc-3oc3cc(O)ccc23)c(C(=O)O)c1)C(N)=O)[C@@H](C)O)[C@@H](C)CC)C(C)(C)C ({Benzoyl(2,3,4,5,6-F5)}-[Tle]I[Tle]ITGPHEEYK(X5)-NH2) | 77 |
| CC[C@H](C)[C@H](NC(=O)[C@@H](NC=O)C(C)(C)C)C(=O)N[C@H](C(=O)N[C@H](C(=O)N[C@H](C(=O)NCC(=O)N1CCC[C@H]1C(=O)N[C@@H](Cc1c[nH]cn1)C(=O)N[C@@H](CCC(=O)O)C(=O)N[C@@H](CCC(=O)O)C(=O)N[C@@H](Cc1ccc(O)cc1)C(=O)N[C@@H](CCCCNC(=S)Nc1ccc(-c2c3ccc(=O)cc-3oc3cc(O)ccc23)c(C(=O)O)c1)C(N)=O)[C@@H](C)O)[C@@H](C)CC)C(C)(C)C (For-[Tle]I[Tle]ITGPHEEYK(X5)-NH2) | > 5800 |

Second part, the molecule after the results:

| Kd [nM] | Structure (SMILES) |
| --- | --- |
| 32 | CC[C@H](C)[C@H](NC(=O)[C@@H](NC(=O)c1cc(F)c(F)c(F)c1F)C(C)(C)C)C(=O)N[C@H](C(=O)N[C@H](C(=O)N[C@H](C(=O)NCC(=O)N1CCC[C@H]1C(=O)N[C@@H](Cc1c[nH]cn1)C(=O)N[C@@H](CCC(=O)O)C(=O)N[C@@H](CCC(=O)O)C(=O)N[C@@H](Cc1ccc(O)cc1)C(=O)N[C@@H](CCCCNC(=S)Nc1ccc(-c2c3ccc(=O)cc-3oc3cc(O)ccc23)c(C(=O)O)c1)C(N)=O)[C@@H](C)O)[C@@H](C)CC)C(C)(C)C (X7-[Tle]I[Tle]ITGPHEEYK(X5)-NH2) |
| 22 | CC[C@H](C)[C@H](NC(=O)[C@@H](NC(=O)c1cccc(Cl)c1Cl)C(C)(C)C)C(=O)N[C@H](C(=O)N[C@H](C(=O)N[C@H](C(=O)N[C@@H](CC(=O)O)C(=O)N[C@@H](CCC(N)=O)C(=O)N[C@@H](Cc1ccc(O)cc1)C(=O)N[C@H](CCCCN)C(=O)NCCC(=O)N[C@@H](CCCCNC(=S)Nc1ccc(-c2c3ccc(=O)cc-3oc3cc(O)ccc23)c(C(=O)O)c1)C(N)=O)[C@@H](C)O)[C@@H](C)CC)C(C)(C)C |
| 12 | CC[C@H](C)[C@H](NC(=O)[C@@H](NC(=O)c1cccc(Cl)c1Cl)C(C)(C)C)C(=O)N[C@H](C(=O)N[C@H](C(=O)N[C@H](C(=O)N[C@@H](Cc1ccc(O)cc1)C(=O)N[C@H](CCC(=O)O)C(=O)N[C@@H](Cc1ccc(F)cc1)C(=O)N[C@@H](Cc1c[nH]cn1)C(=O)NCCC(=O)N[C@@H](CCCCNC(=S)Nc1ccc(-c2c3ccc(=O)cc-3oc3cc(O)ccc23)c(C(=O)O)c1)C(N)=O)[C@@H](C)O)[C@@H](C)CC)C(C)(C)C |
| 9.1 | CC[C@H](C)[C@H](NC(=O)[C@@H](NC(=O)c1cccc(Cl)c1Cl)C(C)(C)C)C(=O)N[C@H](C(=O)N[C@H](C(=O)N[C@H](C(=O)N[C@@H](CCC(N)=O)C(=O)N[C@@H](Cc1c[nH]cn1)C(=O)N[C@H](CC(C)C)C(=O)N[C@@H](CO)C(=O)NCCC(=O)N[C@@H](CCCCNC(=S)Nc1ccc(-c2c3ccc(=O)cc-3oc3cc(O)ccc23)c(C(=O)O)c1)C(N)=O)[C@@H](C)O)[C@@H](C)CC)C(C)(C)C |
| 4.7 | CC[C@H](C)[C@H](NC(=O)[C@@H](NC(=O)c1cccc(Cl)c1Cl)C(C)(C)C)C(=O)N[C@H](C(=O)N[C@H](C(=O)N[C@H](C(=O)N[C@@H](CCC(N)=O)C(=O)N[C@@H](Cc1c[nH]cn1)C(=O)N[C@H](CC(C)C)C(=O)N[C@@H](Cc1c[nH]cn1)C(=O)NCCC(=O)N[C@@H](CCCCNC(=S)Nc1ccc(-c2c3ccc(=O)cc-3oc3cc(O)ccc23)c(C(=O)O)c1)C(N)=O)[C@@H](C)O)[C@@H](C)CC)C(C)(C)C |
| 2.6 | CC[C@H](C)[C@H](NC(=O)[C@@H](NC(=O)[C@@H](NC(=O)[C@@H](NC(=O)[C@@H]1CCCN1C(=O)[C@H](Cc1cnc[nH]1)NC(=O)[C@@H]1CCCN1C(=O)CN)C(C)(C)C)[C@@H](C)CC)C(C)(C)C)C(=O)N[C@H](C(=O)NCC(=O)N1[C@H](C(=O)N[C@@H](Cc2cnc[nH]2)C(=O)N[C@@H](CCC(=O)O)C(=O)N[C@@H](CCC(=O)O)C(=O)O)CSC1(C)C)[C@@H](C)O (H-GPHP[Tle]I[Tle]ITG[X3]HEE-OH) |
